Test results: ChEMBL document CHEMBL1909046, “DrugMatrix in vitro pharmacology data”

What was measured:
[1] = target: Sodium-dependent noradrenaline transporter (Homo sapiens, UniProt P23975); test: DRUGMATRIX: Norepinephrine Transporter radioligand binding (ligand: [125I] RTI-55); format: cell membranes, MDCK, Membrane; settings: Not Active = under 50% inhibition at 10 µM; for Ki: read-out: Ki
[2] = DRUGMATRIX: beta-Lactamase enzyme inhibition (substrate: Nitrocefin); parameters: species or system Bacillus cereus; settings: Not Active = under 50% inhibition at 10 µM
[3] = DRUGMATRIX: Sigma2 radioligand binding (ligand: [3H] Ifenprodil); format: cell membranes, Rattus norvegicus, Wistar, Brain, Membrane; settings: Not Active = under 50% inhibition at 10 µM
[4] = target: Vascular endothelial growth factor receptor 1 (Homo sapiens, UniProt P17948); format: cell-based; settings: huvec; further: in other assays of this panel Not Active means under 50% inhibition at 10 µM
[5] = target: T1, Muscarinic acetylcholine receptor M2 (Homo sapiens, UniProt P08172); format: cell membranes, CHO-K1, Membrane; settings: cho-k1; further: in other assays of this panel Not Active means under 50% inhibition at 10 µM
T1 sequence (P08172 whole entry): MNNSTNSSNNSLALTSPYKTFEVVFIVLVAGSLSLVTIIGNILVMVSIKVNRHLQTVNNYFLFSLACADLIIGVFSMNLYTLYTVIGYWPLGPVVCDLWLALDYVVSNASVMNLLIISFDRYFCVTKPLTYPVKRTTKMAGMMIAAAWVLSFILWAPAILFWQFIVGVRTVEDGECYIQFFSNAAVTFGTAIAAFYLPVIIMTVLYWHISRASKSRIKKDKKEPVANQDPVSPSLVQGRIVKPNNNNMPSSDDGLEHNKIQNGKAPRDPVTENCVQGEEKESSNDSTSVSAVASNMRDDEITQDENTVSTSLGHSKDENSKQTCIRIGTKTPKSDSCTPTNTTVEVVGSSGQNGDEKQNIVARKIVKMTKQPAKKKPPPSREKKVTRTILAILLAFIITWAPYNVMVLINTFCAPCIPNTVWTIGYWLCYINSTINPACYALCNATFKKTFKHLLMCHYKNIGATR

Adenosine receptor A2a = Adenosine receptor A2a (Homo sapiens, UniProt P29274); test: DRUGMATRIX: Adenosine A2A radioligand binding (ligand: […]); format: cell membranes, Membrane; settings: hek293; Not Active = under 50% inhibition at 10 µM
Adenosine receptor A2a, sequence (P29274 whole entry): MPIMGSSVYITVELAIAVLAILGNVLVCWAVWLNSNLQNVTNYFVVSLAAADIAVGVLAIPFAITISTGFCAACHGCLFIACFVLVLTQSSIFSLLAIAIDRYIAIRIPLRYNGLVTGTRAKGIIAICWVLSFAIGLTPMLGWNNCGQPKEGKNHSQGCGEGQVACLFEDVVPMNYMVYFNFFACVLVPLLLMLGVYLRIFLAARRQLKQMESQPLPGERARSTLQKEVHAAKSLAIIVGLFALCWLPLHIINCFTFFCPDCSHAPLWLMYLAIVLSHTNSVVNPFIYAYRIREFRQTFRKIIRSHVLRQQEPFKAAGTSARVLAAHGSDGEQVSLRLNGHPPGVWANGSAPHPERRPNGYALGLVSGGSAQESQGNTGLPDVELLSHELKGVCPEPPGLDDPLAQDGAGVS

Vascular endothelial growth factor receptor 1, sequence (P17948 whole entry): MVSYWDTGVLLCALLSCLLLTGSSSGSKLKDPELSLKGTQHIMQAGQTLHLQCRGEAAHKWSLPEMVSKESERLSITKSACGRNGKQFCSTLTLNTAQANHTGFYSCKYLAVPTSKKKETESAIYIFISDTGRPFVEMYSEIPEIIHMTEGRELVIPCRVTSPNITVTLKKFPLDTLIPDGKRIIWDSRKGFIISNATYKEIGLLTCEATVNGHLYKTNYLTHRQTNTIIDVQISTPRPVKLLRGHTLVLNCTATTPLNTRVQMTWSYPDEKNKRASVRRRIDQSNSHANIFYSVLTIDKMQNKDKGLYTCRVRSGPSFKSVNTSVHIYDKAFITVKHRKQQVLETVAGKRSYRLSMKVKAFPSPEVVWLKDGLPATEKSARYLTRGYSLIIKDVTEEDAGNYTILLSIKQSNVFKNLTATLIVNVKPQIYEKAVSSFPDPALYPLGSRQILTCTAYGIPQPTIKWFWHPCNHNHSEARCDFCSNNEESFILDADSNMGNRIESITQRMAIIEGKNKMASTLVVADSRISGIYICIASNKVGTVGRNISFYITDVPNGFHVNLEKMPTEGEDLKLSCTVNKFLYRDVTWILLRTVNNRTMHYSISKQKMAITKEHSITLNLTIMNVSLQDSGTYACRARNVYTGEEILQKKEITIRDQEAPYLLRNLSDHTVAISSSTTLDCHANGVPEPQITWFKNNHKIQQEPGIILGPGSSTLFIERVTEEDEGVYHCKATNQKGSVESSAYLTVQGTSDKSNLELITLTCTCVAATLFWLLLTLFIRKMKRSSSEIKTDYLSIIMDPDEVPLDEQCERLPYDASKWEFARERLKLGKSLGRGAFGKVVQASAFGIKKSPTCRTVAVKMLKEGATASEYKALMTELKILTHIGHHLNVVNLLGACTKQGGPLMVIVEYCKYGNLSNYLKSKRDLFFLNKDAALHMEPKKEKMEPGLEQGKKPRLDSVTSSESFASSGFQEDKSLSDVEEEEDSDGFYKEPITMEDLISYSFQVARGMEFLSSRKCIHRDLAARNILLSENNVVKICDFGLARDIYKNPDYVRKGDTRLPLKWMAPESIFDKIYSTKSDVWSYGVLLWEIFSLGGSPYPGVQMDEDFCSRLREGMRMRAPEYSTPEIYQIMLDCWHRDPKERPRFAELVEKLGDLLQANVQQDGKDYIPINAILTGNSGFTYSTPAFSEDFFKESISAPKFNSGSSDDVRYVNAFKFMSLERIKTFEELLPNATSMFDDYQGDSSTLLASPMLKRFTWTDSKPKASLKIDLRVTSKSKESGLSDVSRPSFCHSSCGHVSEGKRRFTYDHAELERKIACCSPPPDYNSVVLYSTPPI
Sodium-dependent noradrenaline transporter, sequence (P23975 whole entry): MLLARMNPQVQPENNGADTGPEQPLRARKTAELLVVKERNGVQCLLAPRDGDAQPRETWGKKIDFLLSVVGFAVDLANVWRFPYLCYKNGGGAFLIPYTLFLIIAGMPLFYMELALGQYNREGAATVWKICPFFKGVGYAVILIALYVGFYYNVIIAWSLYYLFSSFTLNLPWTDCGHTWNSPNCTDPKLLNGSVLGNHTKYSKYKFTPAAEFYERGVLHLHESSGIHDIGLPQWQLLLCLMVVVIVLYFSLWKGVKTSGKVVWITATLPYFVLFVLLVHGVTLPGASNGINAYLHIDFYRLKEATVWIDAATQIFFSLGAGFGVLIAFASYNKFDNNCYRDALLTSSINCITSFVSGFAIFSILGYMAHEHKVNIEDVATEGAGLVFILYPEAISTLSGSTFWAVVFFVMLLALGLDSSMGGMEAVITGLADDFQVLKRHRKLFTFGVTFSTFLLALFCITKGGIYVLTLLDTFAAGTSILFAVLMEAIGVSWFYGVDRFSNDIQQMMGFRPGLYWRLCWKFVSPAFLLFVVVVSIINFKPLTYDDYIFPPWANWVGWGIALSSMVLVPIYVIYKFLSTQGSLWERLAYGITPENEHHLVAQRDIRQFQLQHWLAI

CN(Cc1ccc(C(C)(C)C)cc1)Cc1cccc2ccccc12 [BUTENAFINE]
IC50 ([1]; read-out: IC50): 3.91 µM
Ki [1]: 3.88 µM
IC50 [2]: Not Active
Ki [2]: Not Active
IC50 ([3]; read-out: IC50): 255 nM
Ki ([3]; read-out: Ki): 157 nM
IC50 [4]: Not Active
IC50 [5]: Not Active
IC50 (Adenosine receptor A2a): Not Active

C[C@H](CS)C(=O)N1CCC[C@H]1C(=O)O [CAPTOPRIL]
IC50 ([1]; mdck): Not Active
IC50 [2]: Not Active
Ki [2]: Not Active
IC50 [3]: Not Active
Ki [3]: Not Active
IC50 [4]: Not Active
IC50 [5]: Not Active
IC50 (Adenosine receptor A2a): Not Active

Cc1ccc(-c2cc(C(F)(F)F)nn2-c2ccc(S(N)(=O)=O)cc2)cc1 [CELECOXIB]
IC50 ([1]; read-out: IC50): 7.31 µM
Ki [1]: 7.25 µM
IC50 [2]: Not Active
Ki [2]: Not Active
IC50 [3]: Not Active
Ki [3]: Not Active
IC50 [4]: Not Active
IC50 [5]: Not Active
IC50 (Adenosine receptor A2a): Not Active

O=C(O)CCCc1ccc(N(CCCl)CCCl)cc1 [CHLORAMBUCIL]
IC50 ([1]; mdck): Not Active
IC50 [2]: Not Active
Ki [2]: Not Active
IC50 [3]: Not Active
Ki [3]: Not Active
IC50 [4]: Not Active
IC50 [5]: Not Active
IC50 (Adenosine receptor A2a): Not Active

C[C@H](CCC(=O)O)[C@H]1CC[C@H]2[C@@H]3[C@H](O)C[C@@H]4C[C@H](O)CC[C@]4(C)[C@H]3C[C@H](O)[C@]12C [CHOLIC ACID]
IC50 ([1]; mdck): Not Active
IC50 [2]: Not Active
Ki [2]: Not Active
IC50 [3]: Not Active
Ki [3]: Not Active
IC50 [4]: Not Active
IC50 [5]: Not Active
IC50 (Adenosine receptor A2a): Not Active

Cc1cc(C2CCCCC2)n(O)c(=O)c1 [CICLOPIROX]
IC50 ([1]; mdck): Not Active
IC50 [2]: Not Active
Ki [2]: Not Active
IC50 [3]: Not Active
Ki [3]: Not Active
IC50 [4]: Not Active
IC50 [5]: Not Active
IC50 (Adenosine receptor A2a): Not Active

CC1=C2C(=CO[C@H](C)[C@H]2C)C(O)=C(C(=O)O)C1=O [CITRININ]
IC50 ([1]; mdck): Not Active
IC50 [2]: Not Active
Ki [2]: Not Active
IC50 [3]: Not Active
Ki [3]: Not Active
IC50 [4]: Not Active
IC50 [5]: Not Active
IC50 (Adenosine receptor A2a): Not Active

CC(C)(C)NCC(O)c1cc(Cl)c(N)c(Cl)c1 (stereo unspecified) [CLENBUTEROL]
IC50 ([1]; mdck): Not Active
IC50 [2]: Not Active
Ki [2]: Not Active
IC50 [3]: Not Active
Ki [3]: Not Active
IC50 [4]: Not Active
IC50 [5]: Not Active
IC50 (Adenosine receptor A2a): Not Active

CC(C)(Oc1ccc(Cl)cc1)C(=O)O [CLOFIBRIC ACID]
IC50 ([1]; mdck): Not Active
IC50 [2]: Not Active
Ki [2]: Not Active
IC50 [3]: Not Active
Ki [3]: Not Active
IC50 [4]: Not Active
IC50 [5]: Not Active
IC50 (Adenosine receptor A2a): Not Active

Clc1cccc(Cl)c1NC1=NCCN1 [CLONIDINE]
IC50 ([1]; mdck): Not Active
IC50 [2]: Not Active
Ki [2]: Not Active
IC50 [3]: Not Active
Ki [3]: Not Active
IC50 [4]: Not Active
IC50 [5]: Not Active
IC50 (Adenosine receptor A2a): Not Active

Cc1cc(C(C#N)c2ccc(Cl)cc2)c(Cl)cc1NC(=O)c1cc(I)cc(I)c1O (stereo unspecified) [CLOSANTEL]
IC50 ([1]; mdck): Not Active
IC50 [2]: Not Active
Ki [2]: Not Active
IC50 [3]: Not Active
Ki [3]: Not Active
IC50 [4]: Not Active
IC50 [5]: Not Active
IC50 (Adenosine receptor A2a): Not Active

Cc1onc(-c2ccccc2Cl)c1C(=O)N[C@@H]1C(=O)N2[C@@H]1SC(C)(C)[C@@H]2C(=O)O [CLOXACILLIN]
IC50 ([1]; mdck): Not Active
IC50 [2]: Not Active
Ki [2]: Not Active
IC50 [3]: Not Active
Ki [3]: Not Active
IC50 [4]: Not Active
IC50 [5]: Not Active
IC50 (Adenosine receptor A2a): Not Active

CC1CC(OC(=O)C(O)c2ccccc2)CC(C)(C)C1 (stereo unspecified) [CYCLANDELATE]
IC50 ([1]; mdck): Not Active
IC50 [2]: Not Active
Ki [2]: Not Active
IC50 [3]: Not Active
Ki [3]: Not Active
IC50 [4]: Not Active
IC50 [5]: Not Active
IC50 (Adenosine receptor A2a): Not Active
